Assay results: patent publication US20190336615A1, “TUMOR TARGETING CONJUGATES AND METHODS OF USE THEREOF” (SILVERBACK THERAPEUTICS, INC., priority 2017, published 2019)

Assays:
monocytes = test: TNFα production by monocytes with or without tumor cells (AlphaLISA); type: cell-based, human; settings: monocytes with CEA-expressing CHO cells, FIG. 22
Procedure: Monocytes were prepared as follows: PBMCs were isolated from normal human blood using Ficoll purification, and monocytes were enriched from the PBMCs using Stem Cell Technologies Human Monocyte without CD16 Depletion Negative Selection Kits according to the manufacturer's instructions. Monocytes were then slowly frozen and stored in liquid nitrogen. Prior to assay monocytes were thawed and rested overnight at 37° C. in 5% CO2 in assay media (RPMI 1640 media supplemented with 10% FBS, […], 1 mM HEPES, 1× non-essential amino acids, 0.1 mM sodium pyruvate). The following day, monocytes were plated at 4×10^4 cell/well with or without tumor cells at 4×10^4 cell/well in 96-well flat bottom plates in assay media described above. After overnight culture, supernatants were harvested, and TNFα levels were determined by AlphaLISA.

PBMCs = test: TNFα production by PBMCs with antigen-expressing tumor cells (AlphaLISA); type: cell-based, human; settings: PBMCs with SKBR3 tumor cells (HER2), 24 hours, FIG. 20
Procedure: Anti-HER2-antiCD40 G1 antibody was prepared as described in Example 18. Pertuzumab was used as the HER2 G1WT antibody. Conjugates were prepared as generally described in Example 15. PBMCs were isolated from human blood as described above. Briefly, PBMCs were isolated by Ficoll gradient centrifugation, resuspended in RPMI, and plated in 96-well flat bottom microtiter plates (125,000/well). Antigen-expressing tumor cells were then added (25,000/well) along with titrating concentrations of conjugates or unconjugated parental antibodies as controls. After overnight culture, supernatants were harvested, and TNFα levels were determined by AlphaLISA.
Referring to FIG. 20, SKBR3 tumor cells were added to PBMCs, prepared as described above. SKBR3 tumor cells express the tumor antigen HER2. Anti-HER2 TLR8 benzazepine agonist conjugates, either monospecific or bispecific with CD40, and conjugated to various TLR8 benzazepine agonists were added. The immune-stimulatory compound-linkers in the conjugates used in the study are identified in TABLES 30 and 31.

Substance: Pertuzumab [HER2 G1WT, reference compound]
- TNFα production (monocytes): only the CEA conjugate exhibited activity
- TNFα production (PBMCs): did not stimulate TNFα production
